The values that follow come from ChEMBL document CHEMBL1201862, “PubChem BioAssay data set” (2004).

The target in one assay is T1, ORF 73 (Human herpesvirus 8, UniProt O40947).
T1 sequence (O40947 whole entry): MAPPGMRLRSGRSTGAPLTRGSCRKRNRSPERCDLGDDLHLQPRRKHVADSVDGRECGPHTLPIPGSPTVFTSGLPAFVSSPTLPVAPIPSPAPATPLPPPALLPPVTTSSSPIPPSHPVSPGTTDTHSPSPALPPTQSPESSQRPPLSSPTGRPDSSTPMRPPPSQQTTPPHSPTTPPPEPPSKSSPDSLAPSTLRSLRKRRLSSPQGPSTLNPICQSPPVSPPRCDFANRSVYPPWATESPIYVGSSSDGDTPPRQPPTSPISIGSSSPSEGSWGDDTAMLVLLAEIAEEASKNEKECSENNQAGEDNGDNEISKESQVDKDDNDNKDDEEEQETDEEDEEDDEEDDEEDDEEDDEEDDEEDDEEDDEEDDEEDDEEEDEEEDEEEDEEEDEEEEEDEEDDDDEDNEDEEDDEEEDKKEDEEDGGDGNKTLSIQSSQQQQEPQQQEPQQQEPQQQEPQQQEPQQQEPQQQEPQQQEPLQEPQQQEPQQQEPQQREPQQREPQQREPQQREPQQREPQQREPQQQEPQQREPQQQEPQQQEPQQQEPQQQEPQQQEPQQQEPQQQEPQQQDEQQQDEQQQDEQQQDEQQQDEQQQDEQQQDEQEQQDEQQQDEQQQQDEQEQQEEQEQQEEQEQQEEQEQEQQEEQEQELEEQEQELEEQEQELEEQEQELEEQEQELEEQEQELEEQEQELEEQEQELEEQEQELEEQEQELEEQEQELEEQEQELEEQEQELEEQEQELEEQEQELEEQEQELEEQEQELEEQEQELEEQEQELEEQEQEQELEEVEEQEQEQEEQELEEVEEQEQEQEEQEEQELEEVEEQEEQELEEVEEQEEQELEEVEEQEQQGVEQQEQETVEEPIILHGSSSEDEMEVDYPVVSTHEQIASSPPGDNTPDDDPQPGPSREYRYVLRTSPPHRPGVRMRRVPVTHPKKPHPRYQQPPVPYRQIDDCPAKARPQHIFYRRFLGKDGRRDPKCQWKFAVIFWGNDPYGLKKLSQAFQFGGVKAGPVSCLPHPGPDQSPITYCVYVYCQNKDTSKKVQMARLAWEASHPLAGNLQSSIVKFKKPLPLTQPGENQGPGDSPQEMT
Put plainly: KSHV LANA DNA-binding disruption – biochemical, fluorescence polarization, cherry-picked samples, dose response (AID 504725).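 Further: fluorescence polarization of a labeled DNA duplex reporting LANA DNA binding; potency is for inhibitors that block LANA binding to the DNA.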 On the set-up: species or system Human gammaherpesvirus 8. Background: In fluorescence polarisation assays a small probe gives low polarisation when free and higher when bound to something large.

For assay [1], the target named is T2, Histone-lysine N-methyltransferase NSD2 (Homo sapiens, UniProt O96028).
T2 sequence (O96028 whole entry): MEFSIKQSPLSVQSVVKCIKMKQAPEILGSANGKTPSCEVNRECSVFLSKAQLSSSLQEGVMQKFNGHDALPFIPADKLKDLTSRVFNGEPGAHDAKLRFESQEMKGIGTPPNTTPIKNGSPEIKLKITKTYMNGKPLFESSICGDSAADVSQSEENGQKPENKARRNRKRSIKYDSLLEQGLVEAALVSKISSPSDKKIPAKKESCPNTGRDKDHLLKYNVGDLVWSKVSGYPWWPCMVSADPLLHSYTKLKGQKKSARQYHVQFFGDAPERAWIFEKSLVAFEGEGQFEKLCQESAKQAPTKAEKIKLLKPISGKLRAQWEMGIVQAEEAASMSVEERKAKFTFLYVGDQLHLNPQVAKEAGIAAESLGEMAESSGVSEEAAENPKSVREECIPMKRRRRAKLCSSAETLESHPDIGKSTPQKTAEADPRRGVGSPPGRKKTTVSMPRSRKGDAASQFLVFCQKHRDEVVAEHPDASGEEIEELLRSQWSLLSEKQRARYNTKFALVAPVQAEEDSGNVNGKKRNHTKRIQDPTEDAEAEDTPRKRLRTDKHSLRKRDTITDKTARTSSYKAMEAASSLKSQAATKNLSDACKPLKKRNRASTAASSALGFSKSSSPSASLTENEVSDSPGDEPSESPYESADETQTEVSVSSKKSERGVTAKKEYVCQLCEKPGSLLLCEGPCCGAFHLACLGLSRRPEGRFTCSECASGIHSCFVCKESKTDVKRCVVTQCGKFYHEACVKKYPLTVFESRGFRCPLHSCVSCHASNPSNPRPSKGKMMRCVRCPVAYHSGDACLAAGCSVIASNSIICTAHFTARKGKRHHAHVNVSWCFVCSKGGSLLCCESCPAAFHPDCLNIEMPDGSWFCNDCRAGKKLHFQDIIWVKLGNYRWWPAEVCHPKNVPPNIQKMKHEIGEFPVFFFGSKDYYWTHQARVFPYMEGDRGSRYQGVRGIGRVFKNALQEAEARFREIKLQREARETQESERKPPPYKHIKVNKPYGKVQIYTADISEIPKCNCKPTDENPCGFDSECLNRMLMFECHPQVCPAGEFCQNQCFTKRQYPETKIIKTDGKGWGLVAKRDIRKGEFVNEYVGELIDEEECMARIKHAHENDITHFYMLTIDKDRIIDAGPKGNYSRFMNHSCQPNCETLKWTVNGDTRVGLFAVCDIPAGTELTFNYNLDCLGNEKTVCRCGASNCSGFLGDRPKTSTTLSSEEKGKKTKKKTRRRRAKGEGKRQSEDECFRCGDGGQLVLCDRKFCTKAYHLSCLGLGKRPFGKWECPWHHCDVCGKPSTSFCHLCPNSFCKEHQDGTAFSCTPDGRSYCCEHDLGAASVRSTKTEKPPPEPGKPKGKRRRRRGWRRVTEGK
Format: biochemical.

Active and inactive are the calls of the source.

One may read the AC50 as the concentration giving half of the maximal activity seen. As to `CCN(CC)CCN1C(=O)c2cccc3cc(N)cc(c23)C1=O`, the AC50 at ORF 73 is 17.1 µM (active).
Turning to `O=C(O)c1cccc(-n2cccc2/C=C2/NC(=O)N(c3ccc(Cl)cc3)C2=O)c1`, the AC50 on ORF 73 was 23.3 µM (active); in assay [1], 0.72 µM (active).
Regarding `O=S(=O)(O)c1cc(Cl)cc(N=Nc2ccc(O)cc2O)c1O`, the AC50 at ORF 73 is 70.2 µM (active); in assay [1], 7.27 µM (active).
